For data set [1] the following is noted: rat, in vivo, po, 20 mg/kg.
Description: (§1) The concentration of each of the working solutions was 10 μg/mL. The sample preparation involved liquid-liquid extraction. […] The analytes were separated in a Zorbax Plus C18 column (100 × 2.1 mm; 3.5 μm) (Agilent Technologies, Santa Clara, California, USA) at a column temperature of 40 °C. The mobile phase was a mixture of de-ionized water (A) and acetonitrile (B), both containing 0.1% (v/v) formic acid. […] The mobile phase flow was set to 0.3 mL/min. The eluent from the HPLC column was introduced directly to the MS interface, using electrospray ionization in the positive ion mode. The MS parameters were as follows: interface temperature, 350 °C; DL temperature, 250 °C; heat block temperature, 400 °C; nebulizing gas flow, 2 L/min; and drying gas flow, 15 L/min. The electrospray needle voltage was 3.5 kV. The specific transitions for the analytes were monitored using the multiple reaction monitoring (MRM) mode.
For data set [2] the following is noted: rat, in vivo, 20 mg/kg; cited from earlier work.
Data set [3] is described as follows: Adverse effects of the doses used in healthy rats. It is filed as in vivo.
The nature of data set [4]: Plasma pharmacokinetics of atorvastatin, 2-OH AT and 4-OH AT in rats (UPLC-MS/MS). As to conditions: for AUC0-t / AUC0-∞ / Cmax / metabolite/atorvastatin Cmax ratio: rat plasma.
Description: as §1
For data set [5] the following is noted: cited from earlier work.
For data set [6] the following is noted: cited from earlier work. This is another data set of the same source.
Data set [7] can be described thus: Plasma pharmacokinetics of sorafenib and sorafenib N-oxide in rats (HPLC-UV).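 For all read-outs here: pharmacokinetic parameters were computed with Phoenix WinNonlin 8.0 software from the plasma concentration–time curve.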 As to conditions: for AUC0-t / AUC(0-inf) / Cmax / Vd/F / k el / half-life: male, Wistar, rat, plasma, po, 100 mg/kg; for AUC0-t / AUC(0-inf) / Cmax / Vd/F / k el / ka: rat plasma; for AUC(0-inf): AUC0-∞; for k el: kel; for half-life: t1/2, rat plasma.
Excerpt: (§2) The Phoenix® WinNonlin version 8.0 software (Certara, Princeton, New Jersey, USA) was used for the calculation of the following pharmacokinetic parameters: • The elimination rate constant (ke); • The absorption rate constant (ka); • The elimination half-life (t1/2); • The maximum plasma concentration (Cmax); • The time to reach the Cmax (tmax); • The total area under the concentration–time curve (AUC0-t and AUC0--∞); • The apparent plasma drug clearance (Cl/F); • The apparent volume of distribution (Vd/F).
The conditions of data set [8]: rat, in vivo, po, 100 mg/kg.
Excerpt: as §2
Data set [9] in a line: Plasma pharmacokinetics of metformin in rats (HPLC-UV).
Excerpt: as §2
A further data set is described as follows: in vivo. As to conditions: male, Wistar, rat, plasma, po, 100 mg/kg.
The mark [10] stands for this setting: single oral atorvastatin 20 mg/kg b.w. alone (IVAT group).
[11] abbreviates: single oral sorafenib 100 mg/kg + atorvastatin 20 mg/kg b.w. (ISOR+AT group).
Where [12] appears, read: rats, ISOR+AT group vs IVAT group.
[13] abbreviates: single oral sorafenib 100 mg/kg + metformin 100 mg/kg b.w. (IISOR+MET group).
Where [14] appears, read: single oral sorafenib 100 mg/kg b.w. alone (IIISOR group).
[15] abbreviates: rats, IISOR+MET group vs IIISOR group.
[16] abbreviates: rats, ISOR+AT group vs IIISOR group.
[17] abbreviates: rat plasma, single oral sorafenib 100 mg/kg + metformin 100 mg/kg b.w. (IISOR+MET group).

The source of these data is PMC7408095 (Pharmaceutics, 2020).

Like-named read-outs stand apart in the source and are kept apart here.

Excerpt for in vivo: as §2

Consider `CC(C)c1c(C(=O)Nc2ccc(O)cc2)c(-c2ccccc2)c(-c2ccc(F)cc2)n1CC[C@@H](O)C[C@@H](O)CC(=O)O` [4-OH AT, 4-hydroxy atorvastatin], for which, in data set [1], the AUC0-t was 14.63 ± 5.57 (38.1) ng × h/mL and the “AUC0-∞” value is recorded as 19.22 ± 7.06 (36.7) ng × h/mL.

Regarding `CC(C)c1c(C(=O)Nc2ccccc2)c(-c2ccccc2)c(-c2ccc(F)cc2)n1CC[C@@H](O)C[C@@H](O)CC(=O)O` [Atorvastatin, atorvastatin], the safety entry in data set [2] was “safe”. In addition, the adverse effects result in data set [3] (20 mg/kg single oral dose) is given as “did not cause any adverse effects”.

With `CC(C)c1c(C(=O)Nc2ccccc2O)c(-c2ccccc2)c(-c2ccc(F)cc2)n1CCC(O)CC(O)CC(=O)O` (stereo not drawn) [2-OH AT, 2-hydroxy atorvastatin], in data set [4] (setting [10]), the AUC0-t is listed as 617.32 ± 277.54 (45.0) ng × h/mL, the “AUC0-∞” value is recorded as 695.68 ± 297.16 (42.7) ng × h/mL, the Cmax is on record as 175.20 ± 116.62 (66.6) ng/mL and the “metabolite/atorvastatin Cmax ratio” value is 2.35 ± 1.12 (47.6) ng/mL. In data set [4] (setting [11]), the AUC0-t was 958.91 ± 342.91 (35.8) ng × h/mL, the “AUC0-∞” value is 993.97 ± 343.87 (34.6) ng × h/mL, the Cmax was 185.82 ± 90.16 (48.5) ng/mL and the “metabolite/atorvastatin Cmax ratio” value is on record as 2.43 ± 1.06 (43.6) ng/mL. Moreover, in [4] (setting [12]), the “change in the 2-OH AT/atorvastatin ratio for AUC0-t” value is given as −19.4%, the “change in the 2-OH AT/atorvastatin ratio for AUC0-∞” value was −26.0% and the “increase in AUC caused by sorafenib (abstract)” value was 55.3%.

The term AUC(0-inf) denotes the area under the concentration-time curve extrapolated to infinity. As a reminder, the half-life is the time needed for the level to fall by half in the phase considered. For the compound `CNC(=O)c1cc(Oc2ccc(NC(=O)Nc3ccc(Cl)c(C(F)(F)F)c3)cc2)ccn1` [Sorafenib, sorafenib], in data set [5], the “protein-bound form in plasma” value is on record as 99.5%. Also, in data set [6] (clinically important interaction), the “decrease in sorafenib absorption with a high-fat diet” value is reported as 30%. Moreover, the “share in the systemic circulation” value in data set [6] (sorafenib unchanged or as sorafenib N-oxide) is listed as 70−85%. Besides, in [7] (setting [11]), the AUC0-t is 105000 ± 18900 ng·h/mL, the area under the curve AUC(0-inf) is 106000 ± 19300 ng·h/mL, the Cmax worked out at 3660 ± 1210 ng/mL and the Vd/F was found to be 9.98 ± 2.48 L. In data set [7] (setting [11]), the k el was 1.39e-05 s⁻¹, the half-life is 882 ± 190 min and the ka is recorded as 0.20 ± 0.11 (53.2) h^−1. Moreover, in data set [7] (setting [13]), the AUC0-t came out at 35200 ± 8360 ng·h/mL, the AUC(0-inf) came out at 36800 ± 8960 ng·h/mL, the Cmax stood at 1270 ± 380 ng/mL and the Vd/F was 34.1 ± 18.7 L. In addition, in data set [7] (setting [13]), the k el is 1.39e-05 s⁻¹, the half-life was 980 ± 223 min and the ka is reported as 0.35 ± 0.23 (66.8) h^−1. In data set [7] (setting [14]), the AUC0-t was determined as 62800 ± 16100 ng·h/mL, the Vd/F came to 25.3 ± 11.6 L, the k el was 9.72e-06 s⁻¹ and the half-life is 1310 ± 467 min. Moreover, in data set [7] (setting [14]), the ka is 0.74 ± 0.31 (42.5) h^−1. Besides, in data set [7] (setting [15]), the “decrease in AUC0-t in the presence of metformin” value was 44.0%, the “decrease in AUC0-∞ in the presence of metformin” value is given as 45.1%, the “decrease in ka in the presence of metformin” value stood at 0.5 fold and the “increase in clearance in the presence of metformin” value is given as 76.3%. Further, in data set [7] (setting [16]), the “decrease in ka with co-administered atorvastatin” value amounted to 73.0%, the “decrease in t1/2 with co-administered atorvastatin” value is 0.3 fold, the “increase in AUC0-t with co-administered atorvastatin” value was 66.6% and the “increase in AUC0-∞ with co-administered atorvastatin” value amounted to 58.7%. Besides, in data set [7] (setting [16]), the “increase in AUC with co-administered atorvastatin (abstract)” value is on record as 66.6%, the “increase in Cmax with co-administered atorvastatin” value amounted to 134.6%, the “increase in kel with co-administered atorvastatin” value was determined as 42.9% and the “increase in tmax with co-administered atorvastatin” value turned out to be 116.9%.

In the case of `CNC(=O)c1cc(Oc2ccc(NC(=O)Nc3ccc(Cl)c(C(F)(F)F)c3)cc2)cc[n+]1[O-]` [Sorafenib N-oxide, sorafenib N-oxide], in data set [8], the AUC0-t is reported as 4.10 ± 1.56 (38.1) µg × h/mL, the “AUC0-∞” value was 8.61 ± 2.19 (25.4) µg × h/mL, the k el was 0.016 ± 0.010 (60.9) h^−1 and the tmax is on record as 16.38 ± 8.21 (50.1) h.

As usually defined, the MRT last is the average time that molecules of a dose stay in the body. Turning to `CN(C)C(=N)N=C(N)N` [metformin], the plasma protein-bound fraction entry in data set [5] is “negligible”. Also, the Cl/F in [9] (rat plasma, single oral metformin 100 mg/kg b.w. alone (VMET group)) is recorded as 6.31 ± 1.48 (23.5) L/h. In addition, in data set [9] (setting [17]), the AUC0-t is 3.64 ± 1.15 (31.6) µg × h/mL, the “AUC0-∞” value is on record as 10.88 ± 4.50 (41.4) µg × h/mL, the Cl/F was 5.50 ± 3.08 (56.0) L/h and the Cmax is listed as 0.46 ± 0.26 (56.5) µg/mL. In addition, in [9] (setting [17]), the MRT0-t is on record as 8.65 ± 2.22 (25.7) h, the Vd/F is reported as 297.89 ± 133.23 (44.7) L, the k el was 0.03 ± 0.04 (133.3) h^−1 and the tmax was 1.88 ± 0.23 (12.2) h. Besides, in data set [9] (rats, IISOR+MET group vs VMET group), the “increase in tmax with co-administered sorafenib” value was 71.39%. In “in vivo”, this compound had an AUC0-t of 3830 ± 1230 ng·h/mL, an AUC(0-inf) of 7900 ± 1930 ng·h/mL, a Cmax of 500 ± 290 ng/mL and a mean residence time MRT last of 9.81 ± 1.27 h. In “in vivo”, this compound had a Vd/F of 228 ± 91 L, a k el of 8.33e-06 s⁻¹ and a tmax of 1.09 ± 0.57 h. Further, the adverse effects result in [3] (100 mg/kg single oral dose) is “did not cause any adverse effects”.
